Assay results published in the NIST ThermoML archive (doi:10.1016/j.tca.2011.08.025).

Test: molar heat capacity at constant pressure
Conditions: 101.33 kPa, Crystal, Relaxation calorimetry

[Al] [aluminum]
Conditions	molar heat capacity at constant pressure [J/K/mol]
5.284 K	0.011
9.67 K	0.035
14.08 K	0.085
18.45 K	0.181
22.82 K	0.341
27.12 K	0.602
31.49 K	0.992
35.83 K	1.526
40.18 K	2.149
44.52 K	2.841
48.85 K	3.64
53.19 K	4.446
57.52 K	5.317
61.85 K	6.177
66.18 K	7.052
70.51 K	7.917
74.83 K	8.774
79.16 K	9.582
83.49 K	10.38
87.82 K	11.08
92.15 K	11.77
96.47 K	12.46
100.7 K	13.15
105.1 K	13.74
109.4 K	14.29
113.7 K	14.88
118 K	15.37
122.4 K	15.87
126.7 K	16.34
131 K	16.78
135.3 K	17.22
139.7 K	17.63
144 K	17.97
148.3 K	18.36
152.6 K	18.61
156.9 K	18.93
161.2 K	19.21
165.6 K	19.46
169.9 K	19.74
174.2 K	20.03
178.5 K	20.29
182.8 K	20.49
187.1 K	20.74
191.4 K	20.96
195.7 K	21.15
200.1 K	21.31
204.4 K	21.47
208.7 K	21.66
213 K	21.83
217.3 K	22.01
221.7 K	22.2
226 K	22.34
230.3 K	22.46
234.6 K	22.58
238.9 K	22.73
243.3 K	22.82
247.6 K	22.99
251.9 K	23.05
256.2 K	23.21
260.5 K	23.34
264.9 K	23.48
269.2 K	23.61
273.5 K	23.7
277.8 K	23.73
282.1 K	23.82
286.4 K	23.93
290.8 K	24.02
295.1 K	24.12
299.4 K	24.14
303.8 K	24.21

[Nd] [neodymium]
Conditions	molar heat capacity at constant pressure [J/K/mol]
2.151 K	0.8396
2.367 K	1.016
2.581 K	1.201
2.795 K	1.394
3.01 K	1.604
3.226 K	1.824
3.438 K	2.061
3.649 K	2.3
3.86 K	2.548
4.072 K	2.809
4.282 K	3.093
4.49 K	3.38
4.705 K	3.673
4.913 K	3.971
5.122 K	4.282
5.177 K	4.343
5.328 K	4.571
5.524 K	4.815
5.736 K	5.023
5.948 K	5.221
6.156 K	5.44
6.362 K	5.633
6.569 K	5.743
6.774 K	5.889
6.98 K	6.064
7.186 K	6.234
7.391 K	6.437
7.596 K	6.646
7.801 K	6.846
8.006 K	7.013
8.204 K	6.953
8.407 K	6.62
8.613 K	6.23
8.819 K	5.945
9.025 K	5.776
9.228 K	5.667
9.431 K	5.598
9.437 K	5.599
9.634 K	5.571
9.84 K	5.554
10.04 K	5.573
10.2 K	5.561
10.39 K	5.603
10.6 K	5.69
10.81 K	5.744
11.01 K	5.812
11.21 K	5.88
11.41 K	5.952
11.63 K	6.046
11.84 K	6.143
12.03 K	6.237
12.24 K	6.337
12.44 K	6.442
12.66 K	6.573
12.86 K	6.675
13.06 K	6.796
13.26 K	6.922
13.47 K	7.055
13.68 K	7.208
13.77 K	7.145
13.88 K	7.299
14.1 K	7.441
14.28 K	7.621
14.48 K	7.747
14.69 K	7.885
14.92 K	8.025
15.12 K	8.197
15.23 K	8.285
15.32 K	8.377
15.77 K	8.706
16.3 K	9.115
16.83 K	9.61
17.36 K	10.08
17.88 K	10.46
18.09 K	10.52
18.42 K	10.87
18.95 K	11.22
19.48 K	11.63
20.09 K	11.62
20.59 K	11.44
21.1 K	10.32
21.61 K	10.49
22.17 K	11.13
22.39 K	11.25
26.7 K	13.57
31.01 K	15.8
35.3 K	17.93
39.6 K	19.66
43.89 K	21.19
48.19 K	22.54
52.48 K	23.47
56.77 K	24.17
61.06 K	24.73
65.35 K	25.19
69.65 K	25.58
73.95 K	25.83
78.25 K	25.98
82.54 K	26.16
86.85 K	26.23
91.14 K	26.36
95.45 K	26.37
99.73 K	26.49
104 K	26.61
108.3 K	26.65
112.6 K	26.74
116.9 K	26.72
121.2 K	26.78
125.5 K	26.72
129.8 K	26.67
134 K	26.77
138.3 K	26.81
142.6 K	26.97
146.8 K	26.95
151.1 K	27.04
155.4 K	27.01
159.7 K	26.93
164 K	26.99
168.3 K	27.12
172.6 K	27.08
176.9 K	27.2
181.2 K	27.26
185.5 K	27.14
189.8 K	27.14
194.1 K	27.14
198.3 K	27.21
202.6 K	27.44
206.9 K	27.36
211.2 K	27.35
215.5 K	27.48
219.8 K	27.48
224.1 K	27.64
228.4 K	27.65
232.7 K	27.61
237 K	27.52
241.3 K	27.5
245.6 K	27.95
249.8 K	27.71
254.1 K	27.92
258.4 K	27.8
262.7 K	27.77
267 K	27.72
271.3 K	28.15
275.6 K	27.76
279.9 K	28.06
284.2 K	28.25
288.5 K	28.11
292.8 K	28.27
297.1 K	28.29
301.5 K	28.22
